Among the data in PubChem BioAssay (NCI) are TGI values, retold here.

What all share (assay): inhibition of tumour cell growth, NCI panel, 48 h
The test system of assay [1] is MDA-MB-231 breast.
Assay [2] concerns SNB-19 CNS.
The test system of assay [3] is HOP-18 NSCLC.
Assay [4] deals with DMS 273 small cell lung.
Assay [5] has as its system KM20L2 colon.
In assay [6] the test system is T-47D breast.
Assay [7] concerns M19-MEL melanoma.
In assay [8] the test system is IGROV1 ovarian.
Assay [9] concerns SNB-78 CNS.
Assay [10] deals with OVCAR-5 ovarian.
The test system of assay [11] is A498 renal.
Assay [12] has as its system DMS 114 small cell lung.
In assay [13] the test system is MDA-MB-435.

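Tested at 5 concentrations; 48 h exposure; 96-well plates; endpoints linearly interpolated, else capped at highest concentration. TGI: concentration producing complete growth inhibition.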

As for `COc1c2c(nc3ccccc13)-c1cc3c(c(=O)n1C2)COC(=O)C3(O)CC(=O)N1CCOCC1` (stereo not drawn), the TGI is greater than 100 µM in [1]; 83.6 µM in [2]; greater than 79.2 µM in assay [3]; 12.4 µM in assay [4]; greater than 100 µM in assay [5]; 72.3 µM in [6]. The TGI in assay [7] was 44.8 µM; in [8], 98.7 µM; in assay [9], greater than 97.1 µM; in assay [10], 63.1 µM; in [11] it was 46.4 µM; in assay [12], 24.2 µM. The molecule further gave a TGI in assay [13] of 76.9 µM.

As to `C[C@]12CCC3[C@@H](CC[C@@H]4c5nonc5CC[C@]34C)C1C/C(=N/O)C2=O` (stereo partly drawn), the TGI in [2], in assay [3], in assay [4], in assay [5], in assay [7] and in [8] was greater than 100 µM each time. For the same molecule, the TGI in assay [9], in [10], in [11] and in [12] was greater than 100 µM each time.

On to `O=CC1CCCc2ccccc21` (stereo not drawn), for which the TGI in assay [2], in [3], in assay [4], in assay [5], in assay [7] and in assay [8] was greater than 100 µM in each case. The TGI in assay [9] was greater than 100 µM; in assay [10], greater than 100 µM; in assay [11] it was greater than 100 µM; in assay [12] it was greater than 71.4 µM.

As to `CC1=C2C(=CC(C)(C)C2O)C(=O)C(C)(O)C12CC2` (stereo not drawn), the TGI in assay [2] is 0.17 µM; in [3] it was 0.179 µM; in assay [4] it was 0.025 µM; in [5], 0.0522 µM; in assay [7], 0.0861 µM; in assay [8], 0.132 µM. Also, the TGI in [9] stood at 0.226 µM; in assay [10], 0.0433 µM; in [11], 0.0822 µM; in assay [12] it was 0.0281 µM.

As for `CN(/N=C/c1cccc2cccnc12)c1ccccc1`, the TGI in assay [2], in assay [3], in assay [4], in assay [5], in assay [7] and in [8] was greater than 100 µM throughout. Besides, the TGI in [9], in assay [10], in assay [11] and in [12] was greater than 100 µM in each case.

Regarding `O=S1(=O)OCCOS(=O)(=O)C1Cc1ccccc1`, the TGI was greater than 100 µM in assay [2]; 50 µM in [3]; greater than 100 µM in [4]; greater than 100 µM in assay [5]; greater than 100 µM in assay [7]; 93.3 µM in assay [8]. The TGI in assay [9], in [10], in assay [11] and in [12] was greater than 100 µM each time.
